In patent US20200246316A1, “METHODS OF TREATING POST-SURGICAL PAIN WITH A THIAZOLINE ANTI-HYPERALGESIC AGENT” (CERSCI THERAPEUTICS, INC., priority 2019, published 2020):
Counter-ions that a name gives are not always drawn. Like-named read-outs stand apart in the source and are kept apart here.

Assay: Rat 28-day GLP repeat dose PO study (toxicokinetics)
Type: in vivo
Experimental: The vehicle was 0.5% HPMC. There were 15 rats/sex in the control and high dose groups (5/sex for a 14-day recovery period) while the low and mid doses consisted of 10 rats/sex. Satellite groups of rats/sex/group for toxicokinetics were included.
Rats in Group 1 (Vehicle Control) were bled once at approximately 1 hour post-dose on those days.

[1] = female, rat, in vivo, po, 50 mg/kg, Day 1, F, 50 mg/kg PO
[2] = female, rat, in vivo, po, 500 mg/kg, Day 14, F, 500 mg/kg PO
[3] = female, rat, in vivo, po, 500 mg/kg, Day 28, F, 500 mg/kg PO
[4] = female, rat, in vivo, po, 1000 mg/kg, Day 1, F, 1000 mg/kg PO
[5] = female, rat, in vivo, po, 1000 mg/kg, Day 14, F, 1000 mg/kg PO
[6] = female, rat, in vivo, po, 1000 mg/kg, Day 28, F, 1000 mg/kg PO
[7] = female, rat, in vivo, po, 2000 mg/kg, Day 1, F, 2000 mg/kg PO
[8] = female, rat, in vivo, po, 2000 mg/kg, Day 14, F, 2000 mg/kg PO
[9] = female, rat, in vivo, po, 2000 mg/kg, Day 28, F, 2000 mg/kg PO
[10] = male, rat, in vivo, po, 500 mg/kg, Day 1, M, 500 mg/kg PO

## CC1(C)SC(Nc2ccccc2O)=N[C@@H]1C(=O)O [Compound 1, (R)-2-(2-hydroxyphenylamino)-5,5-dimethyl-4,5-dihydrothiazole-4-carboxylic acid mono-hydrochloride]
28-day pivotal rat study, at some doses
  Cmax: over 100 μg/mL
28-day study, rat
  Tmax: ≤ 1 h
All sexes, days, dose levels
  overall mean t1/2: 4.24 h
Both sexes, rat, in vivo, po
  Tmax: 0.5 to 2 h
  half-life: 180 to 480 min
Both sexes, rat, in vivo, po, Days 1, 14 and 28, 500 to 2000 mg/kg PO, read-out: median tmax
  Tmax: 1 h
Both sexes, rat, in vivo, po, Days 14 and 28, all dose levels and sexes, read-out: overall median tmax
  Tmax: 1 h
both, rat, in vivo
  overall mean V/F: 12.5 L/kg
both, rat, in vivo, po
  overall mean CL/F: 2.11 L/h/kg
[1]
  AUC: 298 µg·h/mL
  AUC(0-inf): 299 µg·h/mL
female, rat, in vivo, po, 50 mg/kg, Day 1, F, 50 mg/kg PO, read-out: CL/F (CLz/F) (converted)
  CL/F: 27.8 mL/min/kg
female, rat, in vivo, po, 50 mg/kg, Day 1, F, 50 mg/kg PO, read-out: Cmax
  Cmax: 74.8 µg/mL
female, rat, in vivo, po, 50 mg/kg, Day 1, F, 50 mg/kg PO, read-out: V/F (Vz/F)
  Vd/F: 8.1 L/kg
female, rat, in vivo, po, 50 mg/kg, Day 1, F, 50 mg/kg PO, read-out: t1/2 (converted)
  half-life: 202 min
[2]
  AUC: 223 µg·h/mL
  AUC(0-inf): 225 µg·h/mL
female, rat, in vivo, po, 500 mg/kg, Day 14, F, 500 mg/kg PO, read-out: CL/F (CLss/F) (converted)
  CL/F: 37.5 mL/min/kg
female, rat, in vivo, po, 500 mg/kg, Day 14, F, 500 mg/kg PO, read-out: Cmax
  Cmax: 75 µg/mL
female, rat, in vivo, po, 500 mg/kg, Day 14, F, 500 mg/kg PO, read-out: V/F (Vss/F)
  Vd/F: 13.6 L/kg
female, rat, in vivo, po, 500 mg/kg, Day 14, F, 500 mg/kg PO, read-out: t1/2 (converted)
  half-life: 252 min
female, rat, in vivo, po, 500 mg/kg, Day 14, F, 500 mg/kg PO, read-out: tmax
  Tmax: 1 h
[3]
  AUC: 297 µg·h/mL
  AUC(0-inf): 303 µg·h/mL
female, rat, in vivo, po, 500 mg/kg, Day 28, F, 500 mg/kg PO, read-out: CL/F (CLss/F) (converted)
  CL/F: 28 mL/min/kg
female, rat, in vivo, po, 500 mg/kg, Day 28, F, 500 mg/kg PO, read-out: Cmax
  Cmax: 86.4 µg/mL
female, rat, in vivo, po, 500 mg/kg, Day 28, F, 500 mg/kg PO, read-out: V/F (Vss/F)
  Vd/F: 11.2 L/kg
female, rat, in vivo, po, 500 mg/kg, Day 28, F, 500 mg/kg PO, read-out: t1/2 (converted)
  half-life: 277 min
female, rat, in vivo, po, 500 mg/kg, Day 28, F, 500 mg/kg PO, read-out: tmax
  Tmax: 0.5 h
[4]
  AUC: 788 µg·h/mL
  AUC(0-inf): 794 µg·h/mL
female, rat, in vivo, po, 1000 mg/kg, Day 1, F, 1000 mg/kg PO, read-out: CL/F (CLz/F) (converted)
  CL/F: 21 mL/min/kg
female, rat, in vivo, po, 1000 mg/kg, Day 1, F, 1000 mg/kg PO, read-out: Cmax
  Cmax: 108 µg/mL
female, rat, in vivo, po, 1000 mg/kg, Day 1, F, 1000 mg/kg PO, read-out: V/F (Vz/F)
  Vd/F: 6.15 L/kg
female, rat, in vivo, po, 1000 mg/kg, Day 1, F, 1000 mg/kg PO, read-out: t1/2 (converted)
  half-life: 203 min
[5]
  AUC: 430 µg·h/mL
  AUC(0-inf): 437 µg·h/mL
female, rat, in vivo, po, 1000 mg/kg, Day 14, F, 1000 mg/kg PO, read-out: CL/F (CLss/F) (converted)
  CL/F: 38.7 mL/min/kg
female, rat, in vivo, po, 1000 mg/kg, Day 14, F, 1000 mg/kg PO, read-out: Cmax
  Cmax: 96.3 µg/mL
female, rat, in vivo, po, 1000 mg/kg, Day 14, F, 1000 mg/kg PO, read-out: V/F (Vss/F)
  Vd/F: 14 L/kg
female, rat, in vivo, po, 1000 mg/kg, Day 14, F, 1000 mg/kg PO, read-out: t1/2 (converted)
  half-life: 251 min
[6]
  AUC: 736 µg·h/mL
  AUC(0-inf): 741 µg·h/mL
female, rat, in vivo, po, 1000 mg/kg, Day 28, F, 1000 mg/kg PO, read-out: CL/F (CLss/F) (converted)
  CL/F: 22.7 mL/min/kg
female, rat, in vivo, po, 1000 mg/kg, Day 28, F, 1000 mg/kg PO, read-out: Cmax
  Cmax: 128 µg/mL
female, rat, in vivo, po, 1000 mg/kg, Day 28, F, 1000 mg/kg PO, read-out: V/F (Vss/F)
  Vd/F: 6.26 L/kg
female, rat, in vivo, po, 1000 mg/kg, Day 28, F, 1000 mg/kg PO, read-out: t1/2 (converted)
  half-life: 192 min
female, rat, in vivo, po, 1000 mg/kg, Day 28, F, 1000 mg/kg PO, read-out: tmax
  Tmax: 1 h
[7]
  AUC: 1160 µg·h/mL
  AUC(0-inf): 1320 µg·h/mL
female, rat, in vivo, po, 2000 mg/kg, Day 1, F, 2000 mg/kg PO, read-out: CL/F (CLz/F) (converted)
  CL/F: 25.2 mL/min/kg
female, rat, in vivo, po, 2000 mg/kg, Day 1, F, 2000 mg/kg PO, read-out: Cmax
  Cmax: 118 µg/mL
female, rat, in vivo, po, 2000 mg/kg, Day 1, F, 2000 mg/kg PO, read-out: V/F (Vz/F)
  Vd/F: 17.6 L/kg
[8]
  AUC: 942 µg·h/mL
  AUC(0-inf): 952 µg·h/mL
female, rat, in vivo, po, 2000 mg/kg, Day 14, F, 2000 mg/kg PO, read-out: CL/F (CLss/F) (converted)
  CL/F: 35.3 mL/min/kg
female, rat, in vivo, po, 2000 mg/kg, Day 14, F, 2000 mg/kg PO, read-out: Cmax
  Cmax: 127 µg/mL
female, rat, in vivo, po, 2000 mg/kg, Day 14, F, 2000 mg/kg PO, read-out: V/F (Vss/F)
  Vd/F: 10.9 L/kg
female, rat, in vivo, po, 2000 mg/kg, Day 14, F, 2000 mg/kg PO, read-out: t1/2 (converted)
  half-life: 214 min
female, rat, in vivo, po, 2000 mg/kg, Day 14, F, 2000 mg/kg PO, read-out: tmax
  Tmax: 1 h
[9]
  AUC: 1300 µg·h/mL
  AUC(0-inf): 1330 µg·h/mL
female, rat, in vivo, po, 2000 mg/kg, Day 28, F, 2000 mg/kg PO, read-out: CL/F (CLss/F) (converted)
  CL/F: 25.5 mL/min/kg
female, rat, in vivo, po, 2000 mg/kg, Day 28, F, 2000 mg/kg PO, read-out: Cmax
  Cmax: 139 µg/mL
female, rat, in vivo, po, 2000 mg/kg, Day 28, F, 2000 mg/kg PO, read-out: V/F (Vss/F)
  Vd/F: 8.7 L/kg
female, rat, in vivo, po, 2000 mg/kg, Day 28, F, 2000 mg/kg PO, read-out: t1/2 (converted)
  half-life: 236 min
female, rat, in vivo, po, 2000 mg/kg, Day 28, F, 2000 mg/kg PO, read-out: tmax
  Tmax: 0.5 h
[10]
  AUC: 270 µg·h/mL
  AUC(0-inf): 275 µg·h/mL
male, rat, in vivo, po, 500 mg/kg, Day 1, M, 500 mg/kg PO, read-out: CL/F (CLz/F) (converted)
  CL/F: 30.3 mL/min/kg
male, rat, in vivo, po, 500 mg/kg, Day 1, M, 500 mg/kg PO, read-out: Cmax
  Cmax: 55.1 µg/mL
male, rat, in vivo, po, 500 mg/kg, Day 1, M, 500 mg/kg PO, read-out: V/F (Vz/F)
  Vd/F: 11 L/kg
male, rat, in vivo, po, 500 mg/kg, Day 1, M, 500 mg/kg PO, read-out: t1/2 (converted)
  half-life: 251 min
